1 compound from US20170128489A1 (priority 2014, published 2017) can be followed below.

For orientation: melting point means the temperature of the solid-liquid transition.

On to `NC(=O)CN(CC(N)=O)C1CCCCCCC1` [CO-IDAm, Cyclooctylimidodiacetamide], for which the melting point is 152 to 154 °C.
